Measurements from US12655142B2 (Merck Patent GmbH, priority 2019, dated 2026).

What was measured:
[1] = Determination of solubility; settings: 20 mM Sorensen phosphate buffer, pH 7.4, aqueous buffer, kinetic from dmso stock
Experimental: In a 96 well filtration plate, 2 μL of a 10 mM solution of the test compound in DMSO is added to 98 μL of 20 mM Sorensen phosphate buffer with pH 7.4. The mixture is incubated at room temperature for 120 min while agitating at 250 rpm followed by centrifugation at 2500 rpm for 3 min. After dilution by a factor of 2, the concentration of the test compound is determined using HPLC/UPLC with detection at a suitable wavelength and by comparison to a corresponding compound standard.

c-Kit(V654A) = target: T1, c-Kit(V654A) (Homo sapiens, UniProt P10721, V654A); assay: c-Kit(V654A) assay (33P-ATP filter binding kinase assay); format: biochemical; settings: recombinant human c-Kit aa 544-end V654A, ATP 200 μM
T1 construct: recombinant human c-Kit, amino acids 544-end containing the V654A mutation; GST (N)
Method in brief: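 Radiometric filter-binding read-out: substrate 33P incorporation counted by scintillation after P30 filtermat washes in 75 mM phosphoric acid and methanol. Enzyme: N-GST recombinant human c-Kit aa 544-end carrying V654A.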

[2] = target: T2, GIST430/654 cell line expressing mutated constitutively active cKIT receptor tyrosine kinase (Δ560-576 deletion and V654A point mutation) (Homo sapiens, UniProt P10721, DEL560-576/V654A); assay: Cellular cKIT autophosphorylation (phospho-Y307-cKIT, Luminex bead assay) in GIST430/654 cells; format: cell-based; settings: compounds 45 min, read-out: GIST 430/654 IC50
T2 construct: endogenous in cells; host or cells: GIST430/654 cells
Method in brief: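 GIST430 (Δ560-576) and imatinib-resistant GIST430/654 (plus V654A; grown with 100 nM imatinib) cells were plated in IMDM/15% FCS and treated next day with serially diluted compound for 45 min. Lysates were captured on anti-total-cKIT Luminex beads overnight at 4 °C and probed for phospho-Y307. IC50 was taken from percent of 0.3% DMSO control.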

[3] = Determination of Efflux-Ratio (ER) in Caco-2 cells; settings: human, Caco-2, pH 7.4
Experimental: Determination of Efflux-Ratio (ER) in Caco-2 Cells
The efflux ratio of the test compounds was determined in Caco-2 human epithelial colorectal adenocarcinoma cell line (TC7 clone) using calculation of apparent permeability (Papp). Cell monolayers were differentiated in vitro for 14 days before the experiment. Subsequently, the test compound (in HBSS pH 7.4 at 1 μM final concentration) was applied on the donor side while HBSS buffer (pH 7.4) was added to the receiver wells. […] The plate was then incubated in a 5% CO2 incubator (37° C., 100% humidity). At the end of the 2 hours incubation period, 50 μL sample was removed from both donor and receiver wells and diluted 1:1 with equal volumes of acetonitrile for LC-MS/MS analysis. The LC-MS/MS analysis used a one-point calibration method from a 1 μM standard solution diluted 1:1 with equal volume of acetonitrile (consistent to the test samples).
The data was used to calculate the apparent permeabilities of the compounds in both apical to basolateral (Papp,AB) and basolateral to apical (Papp,BA) directions at 1 μM concentration in duplicate. The Papp values were calculated from the concentrations in the donor and receiver compartments using the following formula:
Efflux ratio was calculated according to the following formula:

[4] = target: T3, GIST430 cell line expressing constitutive active cKIT receptor tyrosine kinase (Δ560-576 deletion) (Homo sapiens, UniProt P10721, DEL560-576); assay: Cellular cKIT autophosphorylation (phospho-Y307-cKIT, Luminex bead assay) in GIST430 cells; format: cell-based; settings: cKIT autophosphorylation, GIST430 cells, compounds 45 min; read-out: GIST 430 IC50
T3 construct: endogenous in cells; host or cells: GIST430 cells
Experimental: Assay Principle for Cellular Testing of cKIT Mutant Inhibitors
The GIST430 cell line expressing constitutive active cKIT receptor tyrosine kinase (Δ560-576 deletion) and the Imatinib resistant GIST430/654 cell line expressing mutated constitutively active cKIT receptor tyrosine kinase (Δ560-576 deletion and V654A point mutation) were employed for assessing cellular potency of compounds. Cellular activity of mutant cKIT was determined by the degree of cKIT autophosphorylation at tyrosine 307 using a Luminex-based bead assay. GIST430 cells were plated with 22,000 cells per well of a 96-well plate in 100 μl medium (85% IMDM/15% FCS) and GIST430/654 cells were plated with 25,000 cells per well of a 96-well plate in 100 μl medium (85% IMDM/15% FCS supplemented with 100 nM Imatinib). At the following day compounds were added in a serial dilution for 45 min. Then, cells were lysed with 90 μl lysis buffer (20 mM Hepes pH 7.5, 200 mM NaCl, 1.5 mM MgCl2×6H2O, 0.4 mM EDTA, 1% Triton-X-100, 1% Phosphatase-Inhibitor II, 20 mM β-Glycerolphosphat, 0.1% Protease-Inhibitor Cocktail III, 0.01% Benzonase) and lysates were cleared by centrifugation through a 96-well filter plate (0.65 μm). Samples were incubated with Luminex-beads which were coupled with an anti-total cKIT antibody overnight at 4° C. under gentle agitation. For detection of phospho-Y307-cKIT a phosphospecific antibody and a species-specific PE-labeled secondary antibody were added. The amount of phospho-Y307-cKIT was determined in a Luminex 200 instrument measuring 100 events per well within 60 seconds.
Counts from samples treated with compounds were calculated as percent of control from solvent treated (0.3% DMSO) samples. Dose-response curves were fitted and IC50 values were determined using Genedata Screener software.

T3 sequence (P10721 with tags, fused parts or gaps DEL560-576): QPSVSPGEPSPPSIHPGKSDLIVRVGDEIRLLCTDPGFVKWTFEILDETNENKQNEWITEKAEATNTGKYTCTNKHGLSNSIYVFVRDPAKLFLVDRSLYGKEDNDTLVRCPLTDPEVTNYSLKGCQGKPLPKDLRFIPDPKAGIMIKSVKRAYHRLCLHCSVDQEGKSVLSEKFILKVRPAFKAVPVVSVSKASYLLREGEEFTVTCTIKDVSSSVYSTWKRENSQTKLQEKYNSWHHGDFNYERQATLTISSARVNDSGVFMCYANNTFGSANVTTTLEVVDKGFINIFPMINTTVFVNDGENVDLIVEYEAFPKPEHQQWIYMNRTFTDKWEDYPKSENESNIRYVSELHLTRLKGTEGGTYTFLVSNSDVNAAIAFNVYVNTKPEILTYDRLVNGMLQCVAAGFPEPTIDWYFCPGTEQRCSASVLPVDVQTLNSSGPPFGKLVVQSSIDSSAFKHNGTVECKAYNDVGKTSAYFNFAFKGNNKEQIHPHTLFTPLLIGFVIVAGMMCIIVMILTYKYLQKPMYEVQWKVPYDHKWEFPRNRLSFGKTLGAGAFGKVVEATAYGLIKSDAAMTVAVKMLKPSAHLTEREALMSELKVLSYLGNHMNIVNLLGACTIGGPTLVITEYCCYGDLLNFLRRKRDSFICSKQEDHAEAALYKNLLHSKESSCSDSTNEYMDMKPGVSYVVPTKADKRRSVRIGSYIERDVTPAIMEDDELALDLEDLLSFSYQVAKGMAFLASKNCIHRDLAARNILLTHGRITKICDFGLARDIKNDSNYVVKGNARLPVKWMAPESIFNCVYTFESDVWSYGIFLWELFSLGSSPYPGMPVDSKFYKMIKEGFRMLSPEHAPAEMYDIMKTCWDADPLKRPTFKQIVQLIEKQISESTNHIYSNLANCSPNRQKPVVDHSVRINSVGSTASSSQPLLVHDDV
T1 sequence (P10721 544-976 V654A): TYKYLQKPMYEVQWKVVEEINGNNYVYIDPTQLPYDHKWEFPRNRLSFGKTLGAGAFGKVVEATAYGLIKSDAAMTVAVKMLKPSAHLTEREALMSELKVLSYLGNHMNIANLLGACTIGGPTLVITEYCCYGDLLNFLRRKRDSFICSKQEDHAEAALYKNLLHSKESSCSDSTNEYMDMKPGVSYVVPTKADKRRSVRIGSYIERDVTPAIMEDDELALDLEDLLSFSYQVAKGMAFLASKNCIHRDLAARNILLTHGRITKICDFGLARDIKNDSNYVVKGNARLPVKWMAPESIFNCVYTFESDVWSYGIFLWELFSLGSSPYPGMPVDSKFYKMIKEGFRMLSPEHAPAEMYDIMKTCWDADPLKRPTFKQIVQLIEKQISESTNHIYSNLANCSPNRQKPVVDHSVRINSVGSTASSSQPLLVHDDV
T2 sequence (P10721 with tags, fused parts or gaps DEL560-576/V654A): as the sequence (P10721 with tags, fused parts or gaps DEL560-576) above, with V612A counted along it

## c1ccn2c(-c3cc(NCc4ccc(-n5ccnc5)cc4)ncn3)cnc2c1 [A8, (6-Imidazo[1,2-a]23yridine-3-yl-pyrimidin-4-yl)-(4-imidazol-1-yl-benzyl)-amine]
[1]
  solubility at 120 min: ≥ 25 µM
c-Kit(V654A)
  IC50: 23 nM
[2]
  IC50: 500 nM
[3]
  efflux ratio at 2 h, 1 μM: < 15

## COc1ccn2c(-c3cc(NCc4ccc(N5CCCCC5=O)cc4)ncn3)cnc2c1 [A12, 1-(4-{[(6-{7-methoxyimidazo[1,2-a]24yridine-3-yl}pyrimidin-4-yl)amino]methyl}phenyl)piperidin-2-one]
[1]
  solubility at 120 min: ≥ 25 µM
c-Kit(V654A)
  IC50: 87 nM
[2]
  IC50: 1100 nM

## c1ccn2c(-c3cc(NCc4ccc(C5=NCCN5)cc4)ncn3)cnc2c1 [A15, [4-(4,5-Dihydro-1H-imidazol-2-yl)-benzyl]-(6-imidazo[1,2-a]pyridin-3-yl-pyrimidin-4-yl)-amine]
[1]
  solubility at 120 min: ≥ 25 µM
c-Kit(V654A)
  IC50: 320 nM

## Cn1ncc(-c2ccc(CNc3cc(-c4cnc5cc(OCCN6CCCC6)ccn45)ncn3)cc2)n1 [A73, [4-(2-methyl-2H-[1,2,3]triazol-4-yl)-benzyl]-{6-[7-(2-pyrrolidin-1-yl-ethoxy)-imidazo[1,2-a]pyridin-3-yl]-pyrimidin-4-yl}-amine]
[1]
  solubility at 120 min: ≥ 25 µM
c-Kit(V654A)
  IC50: 4 nM
[2]
  IC50: 98 nM
[3]
  efflux ratio at 2 h, 1 μM: < 15

## c1cn(-c2ccc(CNc3cc(-c4cnc5cc(OCC6CCN(C7COC7)CC6)ccn45)ncn3)cc2)nn1 [A83, {6-[7-(1-oxetan-3-yl-piperidin-4-ylmethoxy)-imidazo[1,2-a]pyridin-3-yl]-pyrimidin-4-yl}-(4-[1,2,3]triazol-1-yl-benzyl)-amine]
[1]
  solubility at 120 min: ≥ 25 µM
c-Kit(V654A)
  IC50: 25 nM
[2]
  IC50: 310 nM

## Cn1cc(-c2ccc(CNc3cc(-c4cnc5cc(OCCN6CCC6)ccn45)ncn3)cc2)cn1 [A99, 6-{7-[2-(azetidin-1-yl)ethoxy]imidazo[1,2-a]pyridin-3-yl}-N-{[4-(1-methyl-1H-pyrazol-4-yl)phenyl]methyl}pyrimidin-4-amine]
[1]
  solubility at 120 min: ≥ 25 µM
c-Kit(V654A)
  IC50: 8.2 nM
[2]
  IC50: 62 nM
[3]
  efflux ratio at 2 h, 1 μM: 15 to 50

## Cn1ncc(-c2ccc(CNc3cc(-c4cnc5cc(OCCN6CCC6)ccn45)ncn3)cc2)n1 [A100, 6-{7-[2-(azetidin-1-yl)ethoxy]imidazo[1,2-a]pyridin-3-yl}-N-{[4-(2-methyl-2H-1,2,3-triazol-4-yl)phenyl]methyl}pyrimidin-4-amine]
[1]
  solubility at 120 min: ≥ 25 µM
c-Kit(V654A)
  IC50: 9.2 nM
[2]
  IC50: 38 nM
[3]
  efflux ratio at 2 h, 1 μM: < 15

## c1ccn2c(-c3cc(NCc4ccc(N5CC6CC6C5)nc4)ncn3)cnc2c1 (stereo not shown) [A149, [6-(3-aza-bicyclo[3.1.0]hex-3-yl)-pyridin-3-ylmethyl]-(6-imidazo[1,2-a]pyridin-3-yl-pyrimidin-4-yl)-amine]
[1]
  solubility at 120 min: ≥ 25 µM
c-Kit(V654A)
  IC50: 6.2 nM
[2]
  IC50: 270 nM

## Cc1cc(N2CCCC2)ncc1CNc1cc(-c2cnc3ccccn23)ncn1 [A154, (6-imidazo[1,2-a]pyridin-3-yl-pyrimidin-4-yl)-(4-methyl-6-pyrrolidin-1-yl-pyridin-3-ylmethyl)-amine]
[1]
  solubility at 120 min: ≥ 25 µM
c-Kit(V654A)
  IC50: 180 nM

## Cc1cc(N2CC[C@@H](F)C2)ncc1CNc1cc(-c2cnc3ccccn23)ncn1 [A156, [6-((R)-3-fluoro-pyrrolidin-1-yl)-4-methyl-pyridin-3-ylmethyl]-(6-imidazo[1,2-a]pyridin-3-yl-pyrimidin-4-yl)-amine]
[1]
  solubility at 120 min: ≥ 25 µM
c-Kit(V654A)
  IC50: 180 nM

## Cn1cc(-c2ccc(CNc3cc(-c4cnc5cc(CCN6CCCC6)ccn45)ncn3)cc2)cn1 [A168, [4-(1-methyl-1H-pyrazol-4-yl)-benzyl]-{6-[7-(2-pyrrolidin-1-yl-ethyl)-imidazo[1,2-a]pyridin-3-yl]-pyrimidin-4-yl}-amine]
[1]
  solubility at 120 min: ≥ 25 µM
c-Kit(V654A)
  IC50: 27 nM
[2]
  IC50: 630 nM
[3]
  efflux ratio at 2 h, 1 μM: < 15

## Cn1cc(-c2ccc(CNc3cc(-c4cnc5cc(CCN6CCN(C7COC7)CC6)ccn45)ncn3)cc2)cn1 [A170, [4-(1-methyl-1H-pyrazol-4-yl)-benzyl]-(6-{7-[2-(4-oxetan-3-yl-piperazin-1-yl)-ethyl]-imidazo[1,2-a]pyridin-3-yl}-pyrimidin-4-yl)-amine]
[1]
  solubility at 120 min: ≥ 25 µM
c-Kit(V654A)
  IC50: 33 nM
[2]
  IC50: 330 nM

## Cn1cc(-c2ccc(CNc3cc(-c4cnc5cc(OCCN6CCN7CCC6C7)ccn45)ncn3)cc2)cn1 (stereo not shown) [A212, (6-{7-[2-(1,4-diaza-bicyclo[3.2.1]oct-4-yl)-ethoxy]-imidazo[1,2-a]pyridin-3-yl}-pyrimidin-4-yl)-[4-(1-methyl-1H-pyrazol-4-yl)-benzyl]-amine]
[1]
  solubility at 120 min: ≥ 25 µM
c-Kit(V654A)
  IC50: 7.3 nM
[2]
  IC50: 210 nM
[3]
  efflux ratio at 2 h, 1 μM: > 50

## Cn1cc(-c2ccc(CNc3cc(-c4cnc5cc(OCCCN6CCC(C)(F)CC6)ccn45)ncn3)cc2)cn1 [A262, 6-{7-[3-(4-fluoro-4-methylpiperidin-1-yl)propoxy]imidazo[1,2-a]pyridin-3-yl}-N-{[4-(1-methyl-1H-pyrazol-4-yl)phenyl]methyl}pyrimidin-4-amine]
[4]
  IC50: 4.4 nM
c-Kit(V654A)
  IC50: 5 nM
[2]
  IC50: 73 nM
[3]
  efflux ratio at 2 h, 1 μM: < 15

## CC1(F)CCN(CCCOc2ccn3c(-c4cc(NCc5ccc(-c6cocn6)cc5)ncn4)cnc3c2)CC1 [A263, 6-{7-[3-(4-fluoro-4-methylpiperidin-1-yl)propoxy]imidazo[1,2-a]pyridin-3-yl}-N-{[4-(1,3-oxazol-4-yl)phenyl]methyl}pyrimidin-4-amine]
[4]
  IC50: 4.3 nM
c-Kit(V654A)
  IC50: 2.3 nM
[2]
  IC50: 66 nM
[3]
  efflux ratio at 2 h, 1 μM: < 15

## Cc1nc(-c2ccc(CNc3cc(-c4cnc5cc(OCCN6CCn7nncc7C6)ccn45)ncn3)cc2)co1 [A264, N-{[4-(2-methyl-1,3-oxazol-4-yl)phenyl]methyl}-6-[7-(2-{4H,5H,6H,7H-[1,2,3]triazolo[1,5-a]pyrazin-5-yl}ethoxy)imidazo[1,2-a]pyridin-3-yl]pyrimidin-4-amine]
[4]
  IC50: 1.1 nM
c-Kit(V654A)
  IC50: 1.6 nM
[2]
  IC50: 36 nM
[3]
  efflux ratio at 2 h, 1 μM: 15 to 50

## FC(F)(F)Oc1ccc(CNc2cc(-c3cnc4cc(OCCN5CCn6nncc6C5)ccn34)ncn2)cc1 [A265, 6-[7-(2-{4H,5H,6H,7H-[1,2,3]triazolo[1,5-a]pyrazin-5-yl}ethoxy)imidazo[1,2-a]pyridin-3-yl]-N-{[4-(trifluoromethoxy)phenyl]methyl}pyrimidin-4-amine]
[4]
  IC50: 3.3 nM
c-Kit(V654A)
  IC50: 6.8 nM
[2]
  IC50: 78 nM
[3]
  efflux ratio at 2 h, 1 μM: < 15

## Cn1cc(-c2ccc(CNc3cc(-c4cnc5cc(-n6cncn6)ccn45)ncn3)cc2)cn1 [A266, N-{[4-(1-methyl-1H-pyrazol-4-yl)phenyl]methyl}-6-[7-(1H-1,2,4-triazol-1-yl)imidazo[1,2-a]pyridin-3-yl]pyrimidin-4-amine]
[4]
  IC50: 5.1 nM
c-Kit(V654A)
  IC50: 7.9 nM
[2]
  IC50: 130 nM
[3]
  efflux ratio at 2 h, 1 μM: < 15

## Cc1cn(-c2ccn3c(-c4cc(NCc5ccc(-c6cnn(C)c6)cc5)ncn4)cnc3c2)cn1 [A267, 6-[7-(4-methyl-1H-imidazol-1-yl)imidazo[1,2-a]pyridin-3-yl]-N-{[4-(1-methyl-1H-pyrazol-4-yl)phenyl]methyl}pyrimidin-4-amine]
[4]
  IC50: 1.7 nM
c-Kit(V654A)
  IC50: 4.4 nM
[2]
  IC50: 63 nM
[3]
  efflux ratio at 2 h, 1 μM: < 15

## CNC1CN(c2ccn3c(-c4cc(NCc5ccc(-c6cnn(C)c6)cc5)ncn4)cnc3c2)C1 [A268, N-{[4-(1-methyl-1H-pyrazol-4-yl)phenyl]methyl}-6-{7-[3-(methylamino)azetidin-1-yl]imidazo[1,2-a]pyridin-3-yl}pyrimidin-4-amine]
[4]
  IC50: 10 nM
c-Kit(V654A)
  IC50: 11 nM
[2]
  IC50: 140 nM
[3]
  efflux ratio at 2 h, 1 μM: < 15
